Data set [1] deals with Salmonella typhimurium strain TA100. In words: Salmonella mutation assay (Ames test), TA100. The data set is classed as cell-based. The procedure: Overnight bacterial cultures were mixed with various doses of test compounds with (+S9) or without (−S9) and incubated at 37 °C for 20 min. The top agar was added and then poured onto a plate of minimal glucose agar. The plates were incubated at 37 °C for 48 h. The number of revertant colonies was counted and the mutagenic index (MI) was calculated. 2-aminoanthracene (2-AA) and 2-(2-furyl)-3-(5-nitro-2-furyl)-acrylamide (AF-2) were used as positive mutagens in the presence and absence of S9.
(In the Ames test, an excess of revertant colonies over the control signals mutagenicity.)

The nature of data set [2]: SRB cytotoxicity assay, 3T3-L1 mature adipocytes. The data set is classed as cell-based, murine. Particulars: mouse; 3T3-L1 Mature-adipocytes, 48 h, SRB. The procedure:
(§1) The pre-adipocyte 3T3-L1 cell line was differentiated to become mature adipocytes by culturing the cells to 100% confluence in 10% calf serum DMEM (CS medium), as Day 0 in a 96 well-plate. After post-confluence, the cells were incubated with the induction medium as a differentiation initiation medium (DMEM […] 1 μM DEX, 0.5 mM IBMX, 167 nM insulin, and 10% FBS) for 3 days (Days 1–3). After that, cells were cultured in a differentiation medium as an adipogenic differentiation medium (differentiation media: DMEM containing 167 nM insulin and 10% FBS) for 3 days (Days 4–6). Finally, maturation was induced in an induced-lipid accumulation medium (maturation media: DMEM containing 167 nM insulin and 10% FBS) for 6 days (Days 7–12). The mature adipocytes were then used for toxicity testing.
(§2) The cytotoxicity of the oligopeptide and its conjugated forms on HepG2, HEK293, LX-2, and RAW 264.7 cells, pre- and mature 3T3-L1 adipocytes, and hPBMCs was analyzed by a sulforhodamine (SRB) assay to obtain their non-toxic concentration for further experiments and as screening data for their in vitro safety. The cells were plated for 12 h in 96-well plates and then treated with the oligopeptide and its conjugated sugar at a concentration of 0–1000 µg/mL for 48 h. Dimethyl sulfoxide (DMSO) was used as a vehicle control (the untreated control). At the indicated time, the cells were then fixed and subjected to an SRB assay. The absorbance was measured at 510 nm by spectrophotometry (Gen5, BioTek, Winooski, VT, USA), and the cell viability was calculated as the ratio of the treatment versus untreated control. The data are represented as the mean ± standard deviation of three replicates and are expressed relative to the untreated control. The percentage of cell survival was calculated as follows:% cell survival = (Abs_extract/Abs_control) × 100

The next data set concerns 3T3-L1 Mature-adipocytes. In words: SRB cytotoxicity assay, 3T3-L1 mature adipocytes. The data set is classed as cell-based, murine. Particulars: 48 h. Here is the method: as §1, §2
A general note: In SRB staining, fixed cells bind dye roughly in proportion to their protein.

The test system of a further data set is COX-2. In words: COX-2 protein level by immunoblotting in LPS-treated RAW 264.7. It counts as cell-based, murine. Particulars: 100, 200, 400 µg/mL, LPS 1 µg/mL 24 h. Here is the method:
RAW 264.7 macrophage cells were pretreated with various concentrations of the oligopeptide and its conjugated forms (100, 200, 400 µg/mL) for an hour and then incubated with LPS (1 µg/mL) for a further 24 h (at 37 °C in a 5% CO2 humidified atmosphere). The cells were then collected to investigate the iNOS and COX-2 protein levels. Cell lysate was prepared to obtain the protein samples. The samples were subjected to 10% sodium dodecyl sulfate polyacrylamide gel electrophoresis (SDS-PAGE). The separated proteins were electrically transferred to a nitrocellulose membrane. The target proteins were probed with specific antibodies, including anti-COX-2 antibody (Cell signaling, Danvers, MA, USA), anti-iNOS antibody (Merck, Rahway, NJ, USA), and anti-β-actin antibody (Sigma, St. Louis, MO, USA). Protein detection was performed using a chemiluminescence reagent (Bio-Rad Laboratories, Watford, UK).

A value given as a limit tells only on which side of the number the result lay.

We go through one compound from article PMC11353420, “Anti-Inflammatory, Cytotoxic, and Genotoxic Effects of Soybean Oligopeptides Conjugated with Mannose” (Foods, 2024).

The term IC20 denotes the concentration needed for an effect of 20%. Low values mean an effect from little substance, high ones a need for much substance. The IC50 is the point on the concentration scale where inhibition reaches its midpoint.

Consider `OC[C@H]1OC(O)[C@@H](O)[C@@H](O)[C@@H]1O` (stereo partly drawn) [Man, D-mannose], for which the “His^+ Revertant Colonies per Plate” value came out at 127.5 ± 2.5 in data set [1] (TA100, +S9, 0.04 mg per plate); 140.3 ± 2.3 in data set [1] (TA100, +S9, 0.2 mg per plate); 139.0 ± 0.7 in data set [1] (TA100, +S9, 1 mg per plate); 138.5 ± 4.2 in data set [1] (TA100, +S9, 5 mg per plate); 135.2 ± 5.2 in data set [1] (TA100, −S9, 0.04 mg per plate); 137.5 ± 4.5 in data set [1] (TA100, −S9, 0.2 mg per plate). Moreover, the “His^+ Revertant Colonies per Plate” value in data set [1] (TA100, −S9, 1 mg per plate) came to 135.2 ± 4.5; in data set [1] (TA100, −S9, 5 mg per plate), 129.7 ± 4.7. The mutagenicity entry in data set [1] (TA100, presence and absence of the S9 mix) is recorded as “did not cause any mutagenicity”. Also, in data set [2], the IC20 at 48 h was over 1000 µg/mL. The IC50 in the data set with 3T3-L1 Mature-adipocytes (Mus musculus, 3T3-L1 Mature-adipocytes, SRB, read-out: IC50) is over 1000 µg/mL. Moreover, the toxicity to cells result in the data set on 3T3-L1 Mature-adipocytes (mature-3T3-L1, up to 1000 µg/mL) is on record as “not toxic”. In the data set with COX-2, the “effect on COX-2 protein level” value is recorded as “did not affect”.
